The source of these data is patent US20060165987A1, “Stealthy polymeric biodegradable nanospheres and uses thereof” (priority 2002, published 2006).

Each structure is given as a SMILES string.

For series [1] the following is noted: lifetime of free rhodamine; cited from earlier work.
Series [2] in a line: In vitro Rhodamine release (dialysis bag, phosphate buffer). In kind it is physicochemical. The settings on record: 37° C. The procedure:
The in vitro Rhodamine release profiles from the (-PLA-PEG-PLA-)n multiblock NS were determined as follows: NS were precisely weighed and suspended in 10 ml of phosphate buffer solution. The NS suspension was introduced into a dialysis membrane bag (Spectra/por™, Molecular weight cut off: 2000-4000, Spectrum Medical Industries, Inc., CA, USA) that was placed in 150 ml of phosphate buffer. This solution was stirred at 37° C. At pre-determined time intervals, 3 ml aliquots of the release medium were withdrawn from the release medium. The release of Rhodamine was monitored using a spectrofluorometer at an excitation wavelength of […] and emission wavelength of 554 nm. The sample was replaced in the release medium. The samples were analyzed by fluorescence since sensitivity will be needed for the incoming blood samples analysis.

Series [3] can be described thus: Organ distribution by fluorescence microscopy. As to conditions: rats, after IV injection of nanospheres containing rhodamine, image analysis. In kind it is in vivo. The procedure:
0.5 ml was taken at each time step. Plasma levels of rhodamine were measured by fluorescence detection. […] Organs were examined by fluorescence microscopy.

Turning to `CCN(CC)c1ccc2c(-c3ccccc3C(=O)O)c3ccc(=[N+](CC)CC)cc-3oc2c1` [Rhodamine, Rhodamine B], the “t1/2 in the body” value in series [1] was 3 h. Moreover, the time of release in series [2] is listed as at most 30 min. The “Rhodamine accumulation in the organs” value in series [3] is “No Rhodamine accumulation”.
